Experimental data: patent publication US20230391776A1, “AMIDE OXAZOLE COMPOUND” (MEDSHINE DISCOVERY INC., priority 2020, published 2023)

Assays:
human BTK = target: T1, human BTK (Homo sapiens, UniProt Q06187); assay: In vitro BTK kinase activity, 33P isotope-labeled kinase assay; format: biochemical
T1 construct: purchased Reaction Biology Corp
Procedure: The IC50 values were determined using ^33P isotope-labeled kinase activity assay (Reaction Biology Corp) to evaluate the inhibitory ability of the tested compounds on human BTK.
Buffer conditions: 20 mM Hepes (pH 7.5), 10 mM MgCl2, 1 mM EGTA, 0.02% Brij35, 0.02 mg/mL BSA, 0.1 mM Na3VO4, 2 mM DTT, 1% DMSO.
Test procedure: At room temperature, the tested compound was dissolved in DMSO and a 10 mM solution was prepared for use. The substrate was dissolved in a newly prepared buffer solution, and the BTK kinase was added thereto and mixed evenly. The compound dissolved in DMSO was added to the kinase reaction mixture through Echo 550 (Acoustic technology; Nanoliter range). After incubation for 20 minutes at room temperature, ^33P-ATP was added to initiate the reaction. The reaction was carried out at room temperature for 2 hours, and the radioactivity of the reaction solution drop was detected by filtration-binding method with P81 ion exchange filter paper. The kinase activity data were expressed by comparing the kinase activity of the group containing the tested compound with the kinase activity of the blank group (only containing DMSO), and the IC50 value was obtained by curve fitting by Prism4 software (GraphPad), the experimental results were shown in Table 3.

[1] = Pharmacokinetic study of mice; format: in vivo; conditions: mouse, plasma, CD-1 male mice; for Vd / AUC(0-t) / clearance / half-life: IV 3 mg/kg; for Vd: read-out: Apparent volume of distribution Vdss; for AUC(0-t): read-out: Area under the plasma concentration-time curve AUC0-24h; for clearance: read-out: Clearance rate CL; for half-life: read-out: Half-life T1/2 (converted); for bioavailability / AUC / Cmax / Tmax: PO 10 mg/kg; for AUC: read-out: Area under the plasma concentration-time curve AUC; for Cmax: read-out: Peak concentration Cmax; for Tmax: read-out: Peak time Tmax
Procedure: The purpose of this experiment was to study the pharmacokinetics of the test compound in the plasma of CD-1 male mice after intravenous injection and oral administration.
Intravenous injection group: the tested compound was weighed and dissolved with 5% DMSO/10% Solutol/85% H2O, and the pH was adjusted to 4-5 with 6M hydrochloric acid, and a clear solution of 1.5 mg/mL was prepared by vortex, which was filtered by 0.22 m microporous membrane for later use. CD-1 male mice from 6 to 10 weeks old were selected and the test compound solution was injected intravenously at a dose of 3 mg/kg. The sample collection time was: 0.083, 0.25, 0.5, 1, 2, 4, 6, 8, 24 hours.
Oral administration group: the tested compound was weighed and dissolved with 5% DMSO/10% Solutol/85% H2O, the pH was adjusted to 3-4 with 6M hydrochloric acid, and a clear solution of 2.0 mg/mL was prepared by vortex for later use. CD-1 male mice from 6 to 10 weeks old were selected and the test compound was administered orally at a dose of 10 mg/kg. The sample collection time was: 0.25, 0.5, 1, 2, 4, 6, 8, 10, 24 hours.
Approximately 50 μL of whole blood was collected through the jugular vein at each time point for plasma preparation for concentration determination by high performance liquid chromatography-tandem mass spectrometry (LC-MS/MS). All animals were euthanized by CO2 anesthesia after collecting PK samples at the last time point. The non-atrioventricular model of WinnonLin™ Version 6.3 (Pharsight, Mountain View, CA) pharmacokinetic software was used to process the plasma concentration, and the pharmacokinetic parameters were calculated by linear logarithmic trapezoid method.

Pharmacokinetics of rats = format: in vivo; conditions: rat, plasma, SD male rats; for Vd / AUC(0-t) / clearance / half-life: IV 1 mg/kg; for Vd: read-out: Apparent volume of distribution Vdss; for AUC(0-t): read-out: Area under the plasma concentration-time curve AUC0-24h; for clearance: read-out: Clearance rate CL; for half-life: read-out: Half-life T1/2 (converted); for bioavailability / AUC / Cmax / Tmax: PO 3 mg/kg; for AUC: read-out: Area under the plasma concentration-time curve AUC; for Cmax: read-out: Peak concentration Cmax; for Tmax: read-out: Peak time Tmax
Procedure: The purpose of this experiment was to study the pharmacokinetics of the tested compound in the plasma of SD male rats after intravenous injection and oral administration.
SD male rats from 7 to 10 weeks old were selected, and the dosage of intravenous and oral administration was 1 mg/kg and 3 mg/kg respectively. Rats in the gavage group fasted for at least 12 hours before administration, and feeding was resumed after administration for 4 hours. Intravenous injection group was free to eat and drink during the whole experiment.
Drug preparation operation: in the intravenous injection group, the compound was weighed and dissolved with 5% DMSO/10% Solutol/85% H2O, and a clear solution of 0.5 mg/mL was prepared by vortex, which was filtered by a 0.22 m microporous membrane for later use. In the gavage group, the compound was dissolved in 5% DMSO/10% Solutol/85% H2O, and a uniform suspension was prepared by vortex. On the day of the experiment, the animals in the intravenous group were given the corresponding compound by a single injection through the tail vein, and the dosage volume was 2 mL/kg. In the oral group, the corresponding compounds were given by single gavage, and the dosage volume was 5 mL/kg. The animals before administration were weighed, and the administration volume was calculated according to the weight. The sampling time was 0.083 (injection group), 0.25, 0.5, 1, 2, 4, 6, 8, 10 (gavage group), 24 hours. Approximately 250 μL of whole blood was collected through the jugular vein at each time point for plasma preparation for concentration determination by high performance liquid chromatography-tandem mass spectrometry (LC-MS/MS). All animals were euthanized by CO2 anesthesia after collecting PK samples at the last time point. The non-atrioventricular model of WinnonLin™ Version 6.3 (Pharsight, Mountain View, CA) pharmacokinetic software was used to process the plasma concentration, and the pharmacokinetic parameters were calculated by linear logarithmic trapezoid method.

T1 sequence (Q06187 whole entry): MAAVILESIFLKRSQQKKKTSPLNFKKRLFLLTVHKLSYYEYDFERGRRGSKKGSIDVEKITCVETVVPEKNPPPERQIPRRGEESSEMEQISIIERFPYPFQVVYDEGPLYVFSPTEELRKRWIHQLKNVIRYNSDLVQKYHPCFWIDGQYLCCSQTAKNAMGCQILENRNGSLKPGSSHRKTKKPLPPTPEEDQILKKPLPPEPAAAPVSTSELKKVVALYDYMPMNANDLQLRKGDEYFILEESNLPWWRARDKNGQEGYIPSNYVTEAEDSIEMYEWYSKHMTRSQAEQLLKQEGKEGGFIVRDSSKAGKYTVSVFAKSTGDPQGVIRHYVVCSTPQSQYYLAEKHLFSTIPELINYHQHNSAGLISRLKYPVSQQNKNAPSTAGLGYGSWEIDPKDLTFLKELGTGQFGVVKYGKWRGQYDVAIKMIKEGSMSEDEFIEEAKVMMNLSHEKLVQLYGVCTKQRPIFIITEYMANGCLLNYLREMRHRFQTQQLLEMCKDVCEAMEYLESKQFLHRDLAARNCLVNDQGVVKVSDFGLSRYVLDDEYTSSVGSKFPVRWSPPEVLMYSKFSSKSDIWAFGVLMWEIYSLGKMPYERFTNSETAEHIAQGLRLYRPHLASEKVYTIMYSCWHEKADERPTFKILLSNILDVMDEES

| IC50 (human BTK) [nM] | Vd [1] [L/kg] | AUC(0-t) [1] [µM·h] | clearance [1] [mL/min/kg] | half-life [1] [h] | bioavailability [1] [%] | AUC [1] [µM·h] | Cmax [1] [µM] | Tmax [1] [h] | Vd (Pharmacokinetics of rats) [L/kg] | AUC(0-t) (Pharmacokinetics of rats) [µM·h] | clearance (Pharmacokinetics of rats) [mL/min/kg] | half-life (Pharmacokinetics of rats) [h] | bioavailability (Pharmacokinetics of rats) [%] | AUC (Pharmacokinetics of rats) [µM·h] | Cmax (Pharmacokinetics of rats) [µM] | Tmax (Pharmacokinetics of rats) [h] | SMILES |
| --- | --- | --- | --- | --- | --- | --- | --- | --- | --- | --- | --- | --- | --- | --- | --- | --- | --- |
| 20.1 | 1.5 | 17.9 | 5.9 | 8.1 | 78 | 48 | 17.8 | 0.5 | 0.2 | 35.5 | 1.1 | 2.5 | 55 | 59.1 | 10.1 | 1.3 | Cc1cc(-c2nc(C(=O)Nc3cn4cc(C(C)(C)O)nc4cc3-c3ccccc3)co2)ccn1 [WX009] |
| 5.2 | 0.5 | 7.67 | 15.1 | 2.3 | 41 | 10.4 | 6.52 | 0.8 | 0.8 | 5.51 | 7 | 4.1 | 29 | 4.77 | 1.02 | 0.8 | CC(C)(O)c1cn2cc(NC(=O)c3coc(-c4ccnc(N)c4)n3)c(-c3ccccc3)cc2n1 [WX017] |
| 2.9 | 0.8 | 3.77 | 28.2 | 1.9 | 64 | 8.08 | 4.93 | 0.3 | 0.3 | 8.84 | 4 | 1.4 | 38 | 10.2 | 4.33 | 0.3 | CC(C)(O)c1cn2cc(NC(=O)c3coc(-c4ccnc(N)c4F)n3)c(-c3ccccc3)cc2n1 [WX027] |
